Experimental data from the NIST ThermoML archive (doi:10.1016/j.tca.2015.03.003).
± gives the expanded uncertainty stated by the source.

Conditions: Crystal; DTA

| SMILES | Normal melting temperature |
| --- | --- |
| [Cl-].[K+] [potassium chloride] | 771.1 ± 4 °C |
| [Cl-].[Na+] [sodium chloride] | 801.1 ± 4 °C |
